The values below come from US12570614B2, “Phenyl amino pyrimidine compounds and uses thereof” (GlaxoSmithKline LLC, priority 2007, dated 2026).

The subject of assay [1] is BaF3 TELJAK cells (BafT_J2). Description: Cellular screening, BaF3 TELJAK2 cells (Alamar Blue). Type of assay: cell-based. To be noted: Mus musculus, BaF3; 48-72 hr incubation; read-out: BafT_J2_IC50_μM. The protocol: (§1) For screening purposes, compounds were diluted in 96 well plates at a concentration of 20 μM. Plates were warmed at 37° C. for 30 minutes before the assay was performed.
A TEL/Jak2 fusion was generated by digestion of the TELPCR product with BamH I/Sal I restriction enzymes, digestion of the JAK2 PCR product with Sal I/Not I restriction enzymes, followed by ligation and subcloning of the ligation product into the mammalian expression Vector pTRE 2 (Clontech), which was prepared by digestion with BamH I—Not I restriction enzymes, to give the TEL/Jak2 fusion plasmid pTELJAK2.
(§2) The growth factor dependent myelomonocytic cell line BaF3 bearing the pTET-off plasmid (Clontech) was transfected with either pTELJAK2 or pTELJAK3, and the transfected cells were selected for growth-factor independent cell growth. The BaF3 wild-type cells were cultured in DMEM containing 10% FCS, 10% WEHI 3B conditioned medium. The BaF3 TELJAK cells ([…]) were cultured in DMEM 10% Tet-System Approved FBS (without WEHI 3B conditioned medium).
(§3) Cell suspensions were prepared by harvesting cells from culture (the cells used in this test were in late log phase growth with high viability.) Cells were diluted in the appropriate growth medium, as described above, to 1.1× final concentration (from 50,000 cell/mL to 200,000 cell/mL, depending on cell line).
Compounds to be tested were added (10 μL, 10× final concentration) to a flat bottomed 96-well plate. The cellular suspension (90 μL per well) was then added, and the plate incubated for 48-72 hr at 37° C., 5% CO2. Alamar Blue 10 μL per well was added and the plates returned to the incubator for a further 4-6 hours.
(§4) Result are given in table 2 where +++ is <1 μM, ++ is <5 μM and + is <20 μM

A further assay deals with BaF3 wild-type cells. The assay is described as follows: Cellular screening, BaF3 wild-type cells (Alamar Blue). The following applies: Mus musculus, 48-72 hr incubation, read-out: BAF3wt_IC50_μM. Type of assay: cell-based. The protocol: as §1, §2, §3
(§5) Compounds to be tested were added (10 μL, 10× final concentration) to a flat bottomed 96-well plate. The cellular suspension (90 μL per well) was then added, and the plate incubated for 48-72 hr at 37° C., 5% CO2. Alamar Blue 10 μL per well was added and the plates returned to the incubator for a further 4-6 hours. The plates were then read at 544 nm.
as §4
Background: Resazurin is reduced to fluorescent resorufin, in cell work by metabolically active cells.

The next assay has as its system CTLL2. The assay is described as follows: Cellular screening, CTLL2 cells (Alamar Blue). It is filed as cell-based. The following applies: Mus musculus, CTLL-2; 48-72 hr incubation; read-out: CTLL2_IC50_μM. The protocol: as §1, §3, §5, §4
The target of the next assay is human JAK2 (Homo sapiens (Human), UniProt O60674). Description: JAK2 kinase domain Alphascreen enzyme screening. It is filed as biochemical. The following applies: read-out: JAK2_IC50_nM. How it is done: (§6) For screening purposes, compounds (in 100% DMSO) were warmed at 37° C. for at least 20 minutes before use. A […] stock was initially made in assay buffer, where the final concentration of DMSO was 0.3%. The stocks were then diluted in 384 well Optiplates (Packard) where the final concentration of the compound was 5 μM.
The kinase domain of human JAK2 was amplified from U937 mRNA using the polymerase chain reaction with the following primers: […]
The JAK2 PCR products were cloned into the pDest20 destination vector (Gibco). The JAK2 plasmid was then transformed into competent DH10Bac cells (Gibco), and the recombinant baculovirus was prepared via Sf9 insect cell transfection.
(§7) Baculovirus preparations from each of the JAK family members were infected into one litre of […] (Spodoptera frugiperda) cells (Invitrogen) grown in SF900II serum free medium (Invitrogen) to a cell density of approximately 2×10^6 cells/ml. Cells were infected with virus at a cell culture to virus stock ratio of 20:1. Cells were harvested and lysed 48 hours post infection. The GST-tagged JAK kinase domains were purified by affinity chromatography on a GSH agarose column (Scientifix).
Alphascreen phosphotyrosine acceptor beads followed by streptavidin donor beads at a concentration of 1/100 in stop buffer were added to each well under subdued light and incubated for 2-3 hours. The Alphascreen plates were read on a Packard Fusion Alpha instrument
Background: In Alpha technology, singlet oxygen from a donor bead excites a nearby acceptor bead.

In a further assay the target is human JAK3 (Homo sapiens (Human), UniProt P52333). The assay is described as follows: JAK3 kinase domain Alphascreen enzyme screening. Type of assay: biochemical. The following applies: read-out: JAK3_ IC50_nM. The protocol: as §6
The kinase domain of human JAK3 was amplified from U937 mRNA using the polymerase chain reaction with the following primers: […]
The JAK3 PCR products were cloned into the pDest20 destination expression vector (Gibco). The JAK3 plasmid was then transformed into competent DH10Bac cells (Gibco), and the recombinant baculovirus was prepared via Sf9 insect cell transfection.
as §7
The compounds were then incubated with substrate in the presence of either […] ATP for 60 or 90 minutes. […] (final concentration 111 μM) or substrate-2 substrate with the sequence biotin-[…] [SEQ ID NO: 16] (final concentration 133 μM). Alphascreen phosphotyrosine acceptor beads followed by streptavidin donor beads at a concentration of 1/100 in stop buffer were added to each well under subdued light and incubated for 2-3 hours. The Alphascreen plates were read on a Packard Fusion Alpha instrument

human JAK3, sequence (P52333 822-1111): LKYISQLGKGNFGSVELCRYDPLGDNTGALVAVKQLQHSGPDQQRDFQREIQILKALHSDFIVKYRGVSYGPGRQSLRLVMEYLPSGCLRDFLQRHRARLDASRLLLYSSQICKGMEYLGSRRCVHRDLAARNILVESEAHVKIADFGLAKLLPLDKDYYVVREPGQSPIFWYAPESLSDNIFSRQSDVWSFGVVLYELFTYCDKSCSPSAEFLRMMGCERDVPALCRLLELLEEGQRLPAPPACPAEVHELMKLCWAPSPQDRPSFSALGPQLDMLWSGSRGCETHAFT
human JAK2, sequence (O60674 849-1124): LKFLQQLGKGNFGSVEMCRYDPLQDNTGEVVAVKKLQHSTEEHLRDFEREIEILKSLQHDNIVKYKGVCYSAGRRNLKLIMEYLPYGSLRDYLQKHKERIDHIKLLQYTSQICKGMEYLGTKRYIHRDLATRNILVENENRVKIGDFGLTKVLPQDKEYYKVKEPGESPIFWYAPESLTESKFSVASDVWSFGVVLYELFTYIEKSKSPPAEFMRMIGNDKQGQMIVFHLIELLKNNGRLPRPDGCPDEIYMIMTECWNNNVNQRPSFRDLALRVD

For `CCOC(=O)c1ccc(-c2ccnc(Nc3ccc(N4CCOCC4)cc3)n2)cc1` [Compound 1, ethyl 4-(2-(4-morpholinophenyl-amino)pyrimidin-4-yl)benzoate], the IC50 (in assay [1]; with BaF3 wild-type cells; with CTLL2) was above 20000 nM throughout.
As for `N#Cc1cccc(-c2ccnc(Nc3ccc(N4CCOCC4)cc3)n2)c1` [Compound 5, 3-(2-(4-morpholinophenyl-amino)pyrimidin-4-yl)benzonitrile], the IC50 on human JAK2 is below 500 nM; in assay [1], above 20000 nM.
For `N#Cc1cc(-c2ccnc(Nc3ccc(N4CCOCC4)cc3)n2)ccc1F` [Compound 7, 2-fluoro-5-(2-(4-morpholinophenyl-amino)pyrimidin-4-yl)benzonitrile], the IC50 at human JAK2 was above 1000 nM.
Turning to `COc1cc(Nc2nccc(-c3ccc(F)c(C#N)c3)n2)cc(OC)c1OC` [Compound 8, 2-fluoro-5-(2-(3,4,5-trimethoxyphenyl-amino)pyrimidin-4-yl)benzonitrile], at human JAK2, the IC50 is below 500 nM.
For the compound `N#Cc1cc(-c2ccnc(Nc3ccc(N4CCOCC4)cc3)n2)ccc1O` [Compound 9, 2-hydroxy-5-(2-(4-morpholinophenyl-amino)pyrimidin-4-yl)benzonitrile], the IC50 at human JAK2 is below 500 nM; on human JAK3, below 500 nM; in assay [1], below 5000 nM; in the assay on BaF3 wild-type cells, below 5000 nM; with CTLL2 it was below 5000 nM.
Regarding `Cc1cc(-c2ccnc(Nc3ccc(N4CCOCC4)cc3)n2)ccc1C(=O)NCC#N` [Compound 11, N-(cyanomethyl)-2-methyl-4-(2-(4-morpholinophenyl-amino)pyrimidin-4-yl)benzamide], the IC50 was below 100 nM on human JAK2 and below 5000 nM with CTLL2.
As for `COc1cc(-c2ccnc(Nc3ccc(N4CCOCC4)cc3)n2)ccc1C#N` [Compound 16, 2-methoxy-4-(2-(4-morpholinophenyl-amino)pyrimidin-4-yl)benzonitrile], the IC50 is above 1000 nM at human JAK2; above 1000 nM at human JAK3; above 20000 nM in assay [1]; above 20000 nM with BaF3 wild-type cells; above 20000 nM with CTLL2.
On to `O=C(NCc1ccncc1)c1ccc(-c2ccnc(Nc3ccc(N4CCOCC4)cc3)n2)cc1` [Compound 17, 4-(2-(4-morpholinophenyl-amino)pyrimidin-4-yl)-N-(pyridin-4-ylmethyl)benzamide], for which the IC50 on human JAK2 is below 500 nM; on human JAK3, below 1000 nM; in assay [1] it was below 5000 nM; with BaF3 wild-type cells it was below 20000 nM; with CTLL2, above 20000 nM.
On to `O=C(NCc1cccnc1)c1ccc(-c2ccnc(Nc3ccc(N4CCOCC4)cc3)n2)cc1` [Compound 18, 4-(2-(4-morpholinophenyl-amino)pyrimidin-4-yl)-N-(pyridin-3-ylmethyl)benzamide], for which the IC50 was below 500 nM at human JAK2; below 1000 nM on human JAK3; below 5000 nM in assay [1]; above 20000 nM in the assay on BaF3 wild-type cells; below 20000 nM in the assay on CTLL2.
On to `N#Cc1ccc(-c2ccnc(Nc3ccc(N4CCOCC4)cc3)n2)cc1Cl` [Compound 19, 2-chloro-4-(2-(4-morpholinophenyl-amino)pyrimidin-4-yl)benzonitrile], for which the IC50 at human JAK2 is above 1000 nM; on human JAK3, above 1000 nM; in assay [1], above 20000 nM.
For `O=C(Nc1cc[nH]n1)c1ccc(-c2ccnc(Nc3ccc(N4CCOCC4)cc3)n2)cc1` [Compound 22, 4-(2-(4-morpholinophenyl-amino)pyrimidin-4-yl)-N-(1H-pyrazol-3-yl)benzamide], the IC50 at human JAK2 is above 1000 nM; at human JAK3, below 500 nM; in assay [1], above 20000 nM.
With `CC(C)(C#N)NC(=O)c1ccc(-c2ccnc(Nc3ccc(N4CCOCC4)cc3)n2)cc1` [Compound 23, N-(2-cyanopropan-2-yl)-4-(2-(4-morpholinophenyl-amino)pyrimidin-4-yl)benzamide], the IC50 was below 1000 nM on human JAK2 and below 500 nM at human JAK3.
`N#CCNC(=O)c1ccc(-c2ccnc(Nc3ccc(N4CCSCC4)cc3)n2)cc1` [Compound 25, N-(cyanomethyl)-4-(2-(4-thiomorpholino-phenylamino)pyrimidin-4-yl)benzamide]: the IC50 in the assay on CTLL2 was below 5000 nM.
As for `N#CCNC(=O)c1ccc(-c2ccnc(Nc3ccc(N4CCC(O)CC4)cc3)n2)cc1` [Compound 36, N-(cyanomethyl)-4-(2-(4-(4-hydroxypiperidin-1-yl)phenylamino)pyrimidin-4-yl)benzamide], the IC50 on human JAK3 is below 100 nM; in assay [1] it was below 1000 nM; with BaF3 wild-type cells, below 5000 nM; in the assay with CTLL2 it was below 5000 nM.
With `Cc1cnc(Nc2ccc(N3CCC(CO)CC3)cc2)nc1-c1ccc(C(=O)NCC#N)cc1` [Compound 39, N-(cyanomethyl)-4-(2-(4-(4-(hydroxymethyl)piperidin-1-yl)phenylamino)-5-methylpyrimidin-4-yl)benzamide], the IC50 is below 100 nM at human JAK3, below 1000 nM in assay [1], below 5000 nM with BaF3 wild-type cells and below 5000 nM in the assay with CTLL2.
On to `CN1CCN(c2ccc(Nc3nccc(-c4ccc(C(=O)NCC#N)cc4)n3)cc2)CC1` [Compound 44, N-(cyanomethyl)-4-(2-(4-(4-methylpiperazin-1-yl)phenylamino)pyrimidin-4-yl)benzamide], for which the IC50 at human JAK3 is below 500 nM; in the assay with BaF3 wild-type cells, below 5000 nM; in the assay with CTLL2 it was below 5000 nM.
Turning to `COc1cc(-c2ccnc(Nc3ccc(N4CCOCC4)cc3)n2)ccc1C(=O)NCC#N` [Compound 45, N-(cyanomethyl)-2-methoxy-4-(2-(4-morpholinophenyl-amino)pyrimidin-4-yl)benzamide], the figures for the IC50 at human JAK2, at human JAK3 and in the assay on CTLL2 were below 100 nM, below 100 nM and below 1000 nM, respectively.
As to `Cc1cnc(Nc2ccc(N3CCCC(O)C3)cc2)nc1-c1ccc(C(=O)NCC#N)cc1` (centres unmarked) [Compound 46], the results for the IC50 with BaF3 wild-type cells and with CTLL2 were below 5000 nM and below 1000 nM, respectively.
Take `N#CCC(=O)Nc1ccc(-c2ccnc(Nc3ccc(N4CCOCC4)cc3)n2)cc1` [Compound 85, 2-cyano-N-(4-(2-(4-morpholinophenyl-amino)pyrimidin-4-yl)phenyl)acetamide]: the IC50 with BaF3 wild-type cells is below 5000 nM; in the assay on CTLL2 it was below 1000 nM.
For the compound `N#CCNC(=O)c1ccc(-c2ccnc(Nc3ccc(CN4CCS(=O)(=O)CC4)cc3)n2)cc1` [Compound 90], the IC50 was below 100 nM on human JAK2, below 1000 nM in the assay with BaF3 wild-type cells and below 20000 nM with CTLL2.
For the compound `Cc1cnc(Nc2ccc(N3CCOCC3)cc2)nc1-c1ccc(C(=O)NCC#N)cc1` [Compound 92, N-(cyanomethyl)-4-(5-methyl-2-(4-morpholinophenyl-amino)pyrimidin-4-yl)benzamide], the results for the IC50 at human JAK2, on human JAK3 and in the assay with CTLL2 were below 100 nM, below 100 nM and below 1000 nM, respectively.
